From article doi:10.1101/2023.12.04.569845, “Identification of 4-(6-((2-methoxyphenyl)amino)pyrazin-2-yl)benzoic acids as CSNK2A inhibitors with antiviral activity and improved selectivity over PIM3” (bioRxiv, 2023)
Read-outs that look alike come from different tables or passages of the source.

Tests used:
Test in all cases: biochemical
Parameters in all cases: Thermal shift (DSF, SYPRO Orange) Tm shift of recombinant kinase domains at 10 uM compound
CHK2 = molecular target: T1, CHK2 (Homo sapiens, UniProt O96017)
T1 construct: gene CHEK2

MSK1_b = molecular target: T2, MSK1_b (Homo sapiens, UniProt O75582)
T2 construct: gene RPS6KA5; second (C-terminal) kinase domain

DAPK3 = DAPK3 (Homo sapiens, UniProt O43293)
RSK1_b = molecular target: T3, RSK1_b (Homo sapiens, UniProt Q15418)
T3 construct: gene RPS6KA1; second (C-terminal) kinase domain

PAK1 = PAK1 (Homo sapiens, UniProt Q13153)
MER = molecular target: T4, MER (Homo sapiens, UniProt Q12866)
T4 construct: gene MERTK
T4 sequence (Q12866 1-999): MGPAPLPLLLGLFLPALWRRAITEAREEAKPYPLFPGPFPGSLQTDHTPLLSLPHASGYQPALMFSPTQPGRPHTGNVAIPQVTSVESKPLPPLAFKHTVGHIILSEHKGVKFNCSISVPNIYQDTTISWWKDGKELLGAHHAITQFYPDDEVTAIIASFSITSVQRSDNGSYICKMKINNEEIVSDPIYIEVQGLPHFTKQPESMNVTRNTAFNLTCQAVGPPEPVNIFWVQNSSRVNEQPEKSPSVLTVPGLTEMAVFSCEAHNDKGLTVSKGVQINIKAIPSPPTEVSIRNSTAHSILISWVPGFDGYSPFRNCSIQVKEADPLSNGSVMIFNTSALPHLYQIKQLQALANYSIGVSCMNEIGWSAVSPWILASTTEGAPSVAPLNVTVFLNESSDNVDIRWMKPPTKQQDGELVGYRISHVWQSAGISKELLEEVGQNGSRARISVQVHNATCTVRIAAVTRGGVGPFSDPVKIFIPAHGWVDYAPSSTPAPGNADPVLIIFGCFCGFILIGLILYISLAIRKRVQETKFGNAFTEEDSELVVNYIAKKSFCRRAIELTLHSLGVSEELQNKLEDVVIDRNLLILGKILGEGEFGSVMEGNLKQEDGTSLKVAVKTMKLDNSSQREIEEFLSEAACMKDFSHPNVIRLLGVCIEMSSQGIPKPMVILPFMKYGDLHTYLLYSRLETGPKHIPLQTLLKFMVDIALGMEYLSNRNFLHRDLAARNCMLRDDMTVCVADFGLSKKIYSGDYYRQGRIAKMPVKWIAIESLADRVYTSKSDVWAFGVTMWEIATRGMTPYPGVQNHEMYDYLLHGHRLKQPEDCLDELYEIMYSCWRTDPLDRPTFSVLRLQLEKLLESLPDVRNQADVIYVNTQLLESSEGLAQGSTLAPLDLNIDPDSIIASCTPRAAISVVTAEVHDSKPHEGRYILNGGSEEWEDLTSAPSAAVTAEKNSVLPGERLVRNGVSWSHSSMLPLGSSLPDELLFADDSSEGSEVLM

MST2 = molecular target: T5, MST2 (Homo sapiens, UniProt Q13188)
T5 construct: gene STK3
T5 sequence (Q13188 1-491): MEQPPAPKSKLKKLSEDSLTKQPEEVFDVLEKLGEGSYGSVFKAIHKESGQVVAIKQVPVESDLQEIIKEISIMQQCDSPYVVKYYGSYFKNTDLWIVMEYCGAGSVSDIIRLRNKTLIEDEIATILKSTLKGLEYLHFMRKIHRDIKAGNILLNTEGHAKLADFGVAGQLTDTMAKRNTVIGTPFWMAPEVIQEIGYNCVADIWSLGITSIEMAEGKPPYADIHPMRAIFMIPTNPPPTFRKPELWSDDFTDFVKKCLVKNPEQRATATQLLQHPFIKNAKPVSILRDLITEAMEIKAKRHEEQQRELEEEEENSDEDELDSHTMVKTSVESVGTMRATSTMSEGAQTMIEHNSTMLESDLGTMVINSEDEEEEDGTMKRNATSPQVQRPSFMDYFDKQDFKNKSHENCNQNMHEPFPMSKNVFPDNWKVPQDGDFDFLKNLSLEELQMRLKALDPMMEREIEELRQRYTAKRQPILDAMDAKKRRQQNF

DRAK1 = molecular target: T6, DRAK1 (Homo sapiens, UniProt Q9UEE5)
T6 construct: gene STK17A
T6 sequence (Q9UEE5 1-414): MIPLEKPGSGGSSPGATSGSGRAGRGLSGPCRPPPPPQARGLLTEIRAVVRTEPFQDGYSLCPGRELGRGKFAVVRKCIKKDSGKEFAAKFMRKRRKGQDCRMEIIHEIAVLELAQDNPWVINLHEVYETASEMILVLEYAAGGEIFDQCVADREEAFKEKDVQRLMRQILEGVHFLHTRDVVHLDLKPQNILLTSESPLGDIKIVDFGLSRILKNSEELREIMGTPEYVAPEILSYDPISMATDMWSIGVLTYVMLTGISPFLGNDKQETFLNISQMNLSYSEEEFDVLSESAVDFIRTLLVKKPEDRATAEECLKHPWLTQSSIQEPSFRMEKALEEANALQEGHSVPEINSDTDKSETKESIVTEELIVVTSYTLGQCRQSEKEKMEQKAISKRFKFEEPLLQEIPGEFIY

CSNK2a2 = molecular target: T7, CSNK2a2 (Homo sapiens, UniProt P19784)
T7 construct: kinase domain

FES = FES (Homo sapiens, UniProt P07332)
FES, sequence (P07332 whole entry): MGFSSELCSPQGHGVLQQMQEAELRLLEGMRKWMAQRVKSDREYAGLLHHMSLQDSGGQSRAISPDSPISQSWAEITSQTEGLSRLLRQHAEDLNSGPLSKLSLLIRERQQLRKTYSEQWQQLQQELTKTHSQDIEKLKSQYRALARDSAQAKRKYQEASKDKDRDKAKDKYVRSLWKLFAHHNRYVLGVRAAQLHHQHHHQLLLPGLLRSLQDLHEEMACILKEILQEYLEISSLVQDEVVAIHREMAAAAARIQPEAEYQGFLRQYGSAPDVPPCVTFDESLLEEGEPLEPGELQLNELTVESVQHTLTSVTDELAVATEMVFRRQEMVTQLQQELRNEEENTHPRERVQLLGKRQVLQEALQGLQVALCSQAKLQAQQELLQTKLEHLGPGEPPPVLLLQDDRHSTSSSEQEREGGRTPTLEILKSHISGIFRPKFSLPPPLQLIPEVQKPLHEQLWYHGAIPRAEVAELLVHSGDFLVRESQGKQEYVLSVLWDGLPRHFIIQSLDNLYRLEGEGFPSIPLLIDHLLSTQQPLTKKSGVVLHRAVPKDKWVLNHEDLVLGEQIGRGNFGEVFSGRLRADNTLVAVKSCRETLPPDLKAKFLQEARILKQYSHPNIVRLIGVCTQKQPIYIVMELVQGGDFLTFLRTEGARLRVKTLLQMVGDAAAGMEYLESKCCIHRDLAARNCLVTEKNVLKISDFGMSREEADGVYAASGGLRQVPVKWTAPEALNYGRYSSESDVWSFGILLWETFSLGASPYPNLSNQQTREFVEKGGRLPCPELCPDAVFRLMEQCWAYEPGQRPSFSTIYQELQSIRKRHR

T1 sequence (O96017 whole entry): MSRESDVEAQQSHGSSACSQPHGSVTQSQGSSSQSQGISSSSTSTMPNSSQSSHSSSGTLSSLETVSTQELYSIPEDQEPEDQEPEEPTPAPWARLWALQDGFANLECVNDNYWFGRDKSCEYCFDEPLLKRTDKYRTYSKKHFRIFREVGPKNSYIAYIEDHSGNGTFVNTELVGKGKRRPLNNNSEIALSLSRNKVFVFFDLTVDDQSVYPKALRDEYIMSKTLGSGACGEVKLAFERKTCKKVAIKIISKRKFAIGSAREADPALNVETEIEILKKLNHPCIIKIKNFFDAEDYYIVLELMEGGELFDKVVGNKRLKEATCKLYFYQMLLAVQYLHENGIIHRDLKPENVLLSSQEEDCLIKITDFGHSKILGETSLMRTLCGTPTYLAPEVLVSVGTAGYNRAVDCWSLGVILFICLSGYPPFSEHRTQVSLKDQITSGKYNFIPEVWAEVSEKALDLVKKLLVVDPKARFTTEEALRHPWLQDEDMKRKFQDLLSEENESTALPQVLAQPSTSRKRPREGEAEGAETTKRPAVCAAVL
T7 sequence (P19784 whole entry, the tested form may be a part): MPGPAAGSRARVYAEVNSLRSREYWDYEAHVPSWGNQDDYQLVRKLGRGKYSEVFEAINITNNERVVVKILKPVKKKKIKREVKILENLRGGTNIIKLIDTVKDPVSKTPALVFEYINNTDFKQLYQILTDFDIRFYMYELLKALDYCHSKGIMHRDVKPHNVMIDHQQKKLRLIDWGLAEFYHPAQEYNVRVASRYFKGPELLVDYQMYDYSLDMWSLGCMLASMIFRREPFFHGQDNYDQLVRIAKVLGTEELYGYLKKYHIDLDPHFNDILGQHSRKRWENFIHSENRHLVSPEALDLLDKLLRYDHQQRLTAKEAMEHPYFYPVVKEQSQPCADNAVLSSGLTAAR
T3 sequence (Q15418 whole entry, the tested form may be a part): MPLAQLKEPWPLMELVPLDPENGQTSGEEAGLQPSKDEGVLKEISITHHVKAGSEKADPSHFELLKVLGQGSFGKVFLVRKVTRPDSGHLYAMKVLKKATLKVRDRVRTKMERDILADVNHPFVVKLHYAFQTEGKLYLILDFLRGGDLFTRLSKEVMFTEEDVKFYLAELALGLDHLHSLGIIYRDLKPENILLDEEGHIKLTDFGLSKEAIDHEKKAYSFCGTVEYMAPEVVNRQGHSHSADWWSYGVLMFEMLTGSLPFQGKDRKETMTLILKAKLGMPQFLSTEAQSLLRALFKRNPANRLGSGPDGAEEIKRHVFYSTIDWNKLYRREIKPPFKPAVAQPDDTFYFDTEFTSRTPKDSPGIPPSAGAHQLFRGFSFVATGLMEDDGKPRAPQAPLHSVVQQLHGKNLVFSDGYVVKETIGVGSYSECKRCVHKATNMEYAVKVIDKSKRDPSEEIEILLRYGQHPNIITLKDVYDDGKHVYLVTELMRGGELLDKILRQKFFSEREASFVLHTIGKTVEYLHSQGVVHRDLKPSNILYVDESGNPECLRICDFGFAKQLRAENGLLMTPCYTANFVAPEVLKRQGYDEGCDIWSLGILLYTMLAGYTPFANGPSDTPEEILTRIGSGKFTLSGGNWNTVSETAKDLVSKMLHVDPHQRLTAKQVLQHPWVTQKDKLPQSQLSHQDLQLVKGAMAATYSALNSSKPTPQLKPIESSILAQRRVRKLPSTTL
T2 sequence (O75582 whole entry, the tested form may be a part): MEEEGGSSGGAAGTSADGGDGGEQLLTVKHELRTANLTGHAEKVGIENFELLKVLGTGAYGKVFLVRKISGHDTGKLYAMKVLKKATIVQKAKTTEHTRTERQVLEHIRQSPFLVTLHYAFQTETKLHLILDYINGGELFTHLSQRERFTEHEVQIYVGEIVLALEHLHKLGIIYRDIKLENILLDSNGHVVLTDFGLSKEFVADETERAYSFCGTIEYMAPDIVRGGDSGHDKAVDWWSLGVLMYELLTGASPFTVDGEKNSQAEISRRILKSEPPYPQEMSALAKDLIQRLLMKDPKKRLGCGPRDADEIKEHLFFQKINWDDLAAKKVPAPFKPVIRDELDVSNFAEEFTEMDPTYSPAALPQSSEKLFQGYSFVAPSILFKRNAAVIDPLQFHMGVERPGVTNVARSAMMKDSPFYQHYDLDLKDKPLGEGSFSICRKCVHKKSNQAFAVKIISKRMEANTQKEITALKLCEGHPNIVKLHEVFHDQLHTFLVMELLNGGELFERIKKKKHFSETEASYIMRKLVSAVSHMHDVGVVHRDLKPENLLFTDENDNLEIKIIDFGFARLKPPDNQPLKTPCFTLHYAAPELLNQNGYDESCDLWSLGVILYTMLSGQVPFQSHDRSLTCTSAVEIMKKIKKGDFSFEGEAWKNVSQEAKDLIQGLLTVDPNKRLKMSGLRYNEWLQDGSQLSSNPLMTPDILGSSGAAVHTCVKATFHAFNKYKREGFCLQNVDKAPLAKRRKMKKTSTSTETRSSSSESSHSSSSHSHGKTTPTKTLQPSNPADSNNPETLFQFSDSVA
PAK1, sequence (Q13153 whole entry): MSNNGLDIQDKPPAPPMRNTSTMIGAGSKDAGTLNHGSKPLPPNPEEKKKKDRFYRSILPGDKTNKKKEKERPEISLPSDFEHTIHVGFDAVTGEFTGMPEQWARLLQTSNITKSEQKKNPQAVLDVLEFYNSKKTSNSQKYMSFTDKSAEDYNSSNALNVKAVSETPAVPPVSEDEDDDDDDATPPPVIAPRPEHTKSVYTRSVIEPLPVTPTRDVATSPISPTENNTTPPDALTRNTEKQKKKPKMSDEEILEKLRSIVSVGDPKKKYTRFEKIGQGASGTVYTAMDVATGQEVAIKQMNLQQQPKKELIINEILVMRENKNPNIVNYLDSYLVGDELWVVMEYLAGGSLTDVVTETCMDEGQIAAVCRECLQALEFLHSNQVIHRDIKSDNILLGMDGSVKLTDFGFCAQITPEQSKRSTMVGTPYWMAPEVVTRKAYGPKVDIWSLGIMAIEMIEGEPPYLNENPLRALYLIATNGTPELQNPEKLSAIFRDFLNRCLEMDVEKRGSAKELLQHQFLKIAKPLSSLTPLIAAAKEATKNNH
DAPK3, sequence (O43293 whole entry): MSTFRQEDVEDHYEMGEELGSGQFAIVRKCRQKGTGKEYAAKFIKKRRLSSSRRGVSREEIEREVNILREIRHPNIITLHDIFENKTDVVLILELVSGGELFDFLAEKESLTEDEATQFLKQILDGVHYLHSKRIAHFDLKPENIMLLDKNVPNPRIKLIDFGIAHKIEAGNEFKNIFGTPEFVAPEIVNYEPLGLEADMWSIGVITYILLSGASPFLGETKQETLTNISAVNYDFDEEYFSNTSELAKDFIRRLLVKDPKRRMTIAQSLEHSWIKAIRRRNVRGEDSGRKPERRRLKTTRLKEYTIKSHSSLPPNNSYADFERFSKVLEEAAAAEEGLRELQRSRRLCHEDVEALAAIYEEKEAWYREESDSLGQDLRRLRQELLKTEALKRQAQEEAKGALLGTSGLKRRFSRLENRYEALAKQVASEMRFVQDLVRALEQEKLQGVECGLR

COc1ccc(OC(C)C)cc1Nc1cncc(-c2ccc(C(=O)O)cc2)n1 [7c]
ΔTm at 10 µM (CHK2; read-out: 7c): 3 °C
ΔTm at 10 µM (MSK1_b; read-out: 7c): 6 °C
ΔTm at 10 µM (DAPK3; read-out: 7c): 14 °C
ΔTm at 10 µM (RSK1_b; read-out: 7c): 1 °C
ΔTm at 10 µM (PAK1; read-out: 7c): -1 °C
ΔTm at 10 µM (MER; read-out: 7c): 3 °C
ΔTm at 10 µM (MST2; read-out: 7c): 2 °C
ΔTm at 10 µM (DRAK1; read-out: 7c): 4 °C
ΔTm at 10 µM (CSNK2a2; read-out: 7c): 15 °C
ΔTm at 10 µM (FES; read-out: 7c): 0 °C

CC(C)Nc1ccc2cnn(-c3cncc(-c4ccc(C(=O)O)cc4)n3)c2c1 [compound 2, 2]
ΔTm at 10 µM (CHK2; read-out: 2): 6 °C
ΔTm at 10 µM (MSK1_b; read-out: 2): 11 °C
ΔTm at 10 µM (DAPK3; read-out: 2): 16 °C
ΔTm at 10 µM (RSK1_b; read-out: 2): 4 °C
ΔTm at 10 µM (PAK1; read-out: 2): 1 °C
ΔTm at 10 µM (MER; read-out: 2): 3 °C
ΔTm at 10 µM (MST2; read-out: 2): 4 °C
ΔTm at 10 µM (DRAK1; read-out: 2): 8 °C
ΔTm at 10 µM (CSNK2a2; read-out: 2): 15 °C
ΔTm at 10 µM (FES; read-out: 2): 2 °C

CC(C)Oc1ccc2ccn(-c3cncc(-c4ccc(C(=O)O)cc4)n3)c2c1 [6c]
ΔTm at 10 µM (CHK2; read-out: 6c): 4 °C
ΔTm at 10 µM (MSK1_b; read-out: 6c): 6 °C
ΔTm at 10 µM (DAPK3; read-out: 6c): 11 °C
ΔTm at 10 µM (RSK1_b; read-out: 6c): 2 °C
ΔTm at 10 µM (PAK1; read-out: 6c): 0 °C
ΔTm at 10 µM (MER; read-out: 6c): 3 °C
ΔTm at 10 µM (MST2; read-out: 6c): 3 °C
ΔTm at 10 µM (DRAK1; read-out: 6c): 6 °C
ΔTm at 10 µM (CSNK2a2; read-out: 6c): 16 °C
ΔTm at 10 µM (FES; read-out: 6c): -1 °C
